# Values joined by “and” are separate entries in the source; they are usually repeats but may differ in a detail not shown here. Identical values can stand only once.
# Tests used:
# Cleaved Caspase-3 = test: Western blotting of MCF-7 lysates, cleaved caspase-3; assay type: cell-based, human; details: for Cleaved Caspase-3 WB Normalized: control 0 µM 0.213235397
# Procedure: MCF-7 cell lysates were prepared by rinsing the cells twice with PBS and then solubilizing them in lysis buffer (NP40 supplemented with protease and phosphatase inhibitor cocktails) on ice. The solubilization process involved rotating the lysis buffer/cell mixture end over end for 10 min at 4°C. After centrifugation for 10 min at 4°C to remove insoluble material, the protein concentration of the solubilized protein was determined using a BCA assay. Subsequently, samples were diluted in SDS sample buffer. Equivalent amounts of protein were separated by SDS-PAGE, transferred to PVDF membranes, and probed with the indicated antibody. Prior to incubation with primary antibodies overnight at 4°C, the membranes were blocked with 5% skim milk-TBST. The antibodies and their sources were as follows: PARP1 (1:500, Santa Cruz Biotechnology), Cleaved Caspase-3 (1:1000, Cell Signaling Technology), BAX (1:500, Santa Cruz Biotechnology), BCL-2 (1:500, Santa Cruz Biotechnology), and GAPDH (1:500, Santa Cruz Biotechnology). Following incubation with horseradish peroxidase-conjugated goat anti-mouse or goat anti-rabbit secondary antibody (Santa Cruz Biotechnology), the detected proteins were visualized using the Pierce Enhanced Chemiluminescence (ECL) reagent and a UV Products imaging system. Band intensities were quantified using the National Institutes of Health ImageJ software.
# [1] = target: EGFR intracellular kinase domain (Homo sapiens, UniProt P00533); test: SPR binding (Biacore 8K); design: the intracellular tyrosine kinase (TK) domain of EGFR, tagged with GST; purchased Sinobiological, China; details: without ATP
# Chain of EGFR intracellular kinase domain (P00533 712-979 limits assumed): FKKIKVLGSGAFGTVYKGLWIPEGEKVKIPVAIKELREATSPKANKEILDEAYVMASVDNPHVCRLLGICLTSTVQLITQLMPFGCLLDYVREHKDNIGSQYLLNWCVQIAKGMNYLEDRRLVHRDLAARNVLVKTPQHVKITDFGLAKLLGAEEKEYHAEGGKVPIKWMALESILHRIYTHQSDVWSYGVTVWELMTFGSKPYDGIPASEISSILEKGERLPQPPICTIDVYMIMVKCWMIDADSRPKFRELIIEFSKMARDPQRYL
# Text: (§1) The extracellular ligand-binding domain of EGFR, tagged with His, and the intracellular tyrosine kinase (TK) domain of EGFR, tagged with GST, were acquired from Sinobiological, China. Kinase assay systems for both wild-type EGFR and its mutants—T790M, L858R, and the dual L858R/T790M—were procured from Promega Corporation, USA. Cell lines including MCF-7, A549, A431, H1299, HL-60, and MCF-10A were obtained from the China Infrastructure Cell Line Resources.
# The binding affinities of compounds towards EGFR extracellular ligand binding domain and EGFR intracellular kinase domain were assayed using the SPR-based Biacore 8K instrument (Cytiva). Considering the purchased EGFR was fused with GST tag, GST alone was also immobilized on the chip to do the binding measurement. All the proteins were respectively immobilized on a CM5 sensor chip by using standard amine-coupling at 25°C with running buffer HEPES-P (20 mM HEPES buffer, […], 0.05% surfactant P20, pH 7.4). A reference channel was only activated and blocked to eliminate compound unspecific binding to the surface of the chip. The immobilization level of EGFR extracellular ligand binding domain, EGFR intracellular kinase domain and GST were all about 10,000 RU. […] Extra wash with 50% DMSO was added to remove the last remaining sample in the pipeline.
# HL-60 cells = test: MTT assay, HL-60; assay type: cell-based, human; details: HL-60 (low EGFR-expressing), 10 μM
# Procedure: (§2) The cell lines MCF-7 and A431 were cultured in Dulbecco’s Modified Eagle’s Medium (DMEM, Gibco, USA), while HL-60, H1299, and A549 cells were maintained in RPMI-1640 medium (Gibco, USA). Both mediums were enriched with 10% fetal bovine serum and 1% penicillin/streptomycin. […] All cell cultures were incubated at 37°C in an atmosphere containing 5% CO2.
# (§3) Cells in the exponential growth phase were seeded into 96-well plates and allowed to adhere overnight. Subsequently, they were treated in triplicate with various concentrations of the compounds (0, 1.56, 3.13, 6.25, 12.5, 25, 50, 100 µM), […]. After 24 h, 20 µL of Methyl-thiazolyldiphenyl-tetrazolium bromide (MTT, 5 mg/mL, Thermo Fisher Scientific) was added to each well and incubated for a minimum of 4 h. Following the incubation, the medium containing the compounds and MTT was removed from each well, and 200 µL of dimethyl sulfoxide (DMSO) was added. The plates were then shaken for 10 min at 37°C to dissolve the formazan crystals. The absorbance was measured using a microplate reader (BioTek Synergy 4) at a wavelength of 490 nm.
# EGFR T790M = target: T1, EGFR T790M (Homo sapiens, UniProt P00533, T790M); test: Kinase inhibition assay (ADP-Glo, Promega); assay type: biochemical; details: in vitro kinase assay; read-out: IC50 against EGFR T790M
# T1 construct: purchased Promega Corporation, USA
# T1 sequence (P00533 25-1210 T790M): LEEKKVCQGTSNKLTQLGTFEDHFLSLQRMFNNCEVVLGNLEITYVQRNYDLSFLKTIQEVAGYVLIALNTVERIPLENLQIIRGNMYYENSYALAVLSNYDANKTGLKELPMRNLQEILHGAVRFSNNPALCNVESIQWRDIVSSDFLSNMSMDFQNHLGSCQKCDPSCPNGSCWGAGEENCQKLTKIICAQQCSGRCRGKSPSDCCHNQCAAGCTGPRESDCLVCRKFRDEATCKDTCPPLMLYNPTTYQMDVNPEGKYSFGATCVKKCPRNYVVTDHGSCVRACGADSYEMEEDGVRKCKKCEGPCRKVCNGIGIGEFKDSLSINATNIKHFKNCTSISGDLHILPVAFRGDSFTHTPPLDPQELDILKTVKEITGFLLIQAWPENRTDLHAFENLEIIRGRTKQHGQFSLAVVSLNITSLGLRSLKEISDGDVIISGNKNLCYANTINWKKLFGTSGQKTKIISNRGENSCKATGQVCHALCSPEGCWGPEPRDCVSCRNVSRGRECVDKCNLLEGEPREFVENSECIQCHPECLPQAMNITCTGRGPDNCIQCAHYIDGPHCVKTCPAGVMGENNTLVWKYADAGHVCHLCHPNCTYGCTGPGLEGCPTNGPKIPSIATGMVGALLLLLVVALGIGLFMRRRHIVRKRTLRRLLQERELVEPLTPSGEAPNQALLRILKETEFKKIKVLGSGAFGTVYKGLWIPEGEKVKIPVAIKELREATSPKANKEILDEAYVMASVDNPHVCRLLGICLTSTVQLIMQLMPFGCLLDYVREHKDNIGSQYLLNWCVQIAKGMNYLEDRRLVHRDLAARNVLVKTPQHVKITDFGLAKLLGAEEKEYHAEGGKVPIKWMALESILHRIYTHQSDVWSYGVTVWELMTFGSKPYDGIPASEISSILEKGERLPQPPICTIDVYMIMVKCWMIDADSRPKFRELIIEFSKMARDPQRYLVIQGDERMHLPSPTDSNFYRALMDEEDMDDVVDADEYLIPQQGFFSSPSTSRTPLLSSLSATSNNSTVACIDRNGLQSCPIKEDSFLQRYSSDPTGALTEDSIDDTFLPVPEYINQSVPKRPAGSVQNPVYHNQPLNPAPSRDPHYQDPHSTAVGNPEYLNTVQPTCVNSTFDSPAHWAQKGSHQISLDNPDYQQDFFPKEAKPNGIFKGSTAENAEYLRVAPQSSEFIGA
# Procedure: as §1, with “Kinase assay systems for both wild-type EGFR and its mutants—T790M, L858R, and the dual L858R/T790M—were procured from Promega Corporation, USA.” left out
# (§4) The experiments were conducted in accordance with the manufacturer’s guidelines (Promega). The procedure began with a kinase reaction, where 5 μL of 1× kinase buffer was utilized, and the mixture was incubated at room temperature for 60 min. This step was followed by the addition of 5 μL of ADP-Glo™ reagent to terminate the kinase reaction and to deplete any remaining ATP, with a subsequent incubation period of 40 min at room temperature. Next, 10 μL of kinase detection reagent was added to convert ADP back into ATP, and luciferase along with luciferin was introduced to facilitate ATP detection. This mixture was then incubated at room temperature for an additional 30 min. Detection was carried out using a BioTek Synergy4 instrument, and data analysis, including curve fitting and presentation, was performed using GraphPad Prism version 5.0.
# (§5) All experiments were repeated at least three times, and the data are presented as mean ± standard deviation (SD). The statistical analyses were performed using Origin. EC50 or IC50 values were obtained by fitting the data to a four-parameter Hill model of the graph of log dose against percentage cell viability or inhibition from at least three sets of experiments. Difference between two groups were analyzed by Student’s t test (two-sided) and significance was set at p < 0.05. The specific details about statistical methods are introduced in respective figure legends.
# EGFR L858R = target: T2, EGFR L858R (Homo sapiens, UniProt P00533, L858R); test: Kinase inhibition assay (ADP-Glo, Promega); assay type: biochemical; details: in vitro kinase assay; read-out: IC50 against EGFR L858R
# T2 construct: purchased Promega Corporation, USA
# T2 sequence (P00533 25-1210 L858R): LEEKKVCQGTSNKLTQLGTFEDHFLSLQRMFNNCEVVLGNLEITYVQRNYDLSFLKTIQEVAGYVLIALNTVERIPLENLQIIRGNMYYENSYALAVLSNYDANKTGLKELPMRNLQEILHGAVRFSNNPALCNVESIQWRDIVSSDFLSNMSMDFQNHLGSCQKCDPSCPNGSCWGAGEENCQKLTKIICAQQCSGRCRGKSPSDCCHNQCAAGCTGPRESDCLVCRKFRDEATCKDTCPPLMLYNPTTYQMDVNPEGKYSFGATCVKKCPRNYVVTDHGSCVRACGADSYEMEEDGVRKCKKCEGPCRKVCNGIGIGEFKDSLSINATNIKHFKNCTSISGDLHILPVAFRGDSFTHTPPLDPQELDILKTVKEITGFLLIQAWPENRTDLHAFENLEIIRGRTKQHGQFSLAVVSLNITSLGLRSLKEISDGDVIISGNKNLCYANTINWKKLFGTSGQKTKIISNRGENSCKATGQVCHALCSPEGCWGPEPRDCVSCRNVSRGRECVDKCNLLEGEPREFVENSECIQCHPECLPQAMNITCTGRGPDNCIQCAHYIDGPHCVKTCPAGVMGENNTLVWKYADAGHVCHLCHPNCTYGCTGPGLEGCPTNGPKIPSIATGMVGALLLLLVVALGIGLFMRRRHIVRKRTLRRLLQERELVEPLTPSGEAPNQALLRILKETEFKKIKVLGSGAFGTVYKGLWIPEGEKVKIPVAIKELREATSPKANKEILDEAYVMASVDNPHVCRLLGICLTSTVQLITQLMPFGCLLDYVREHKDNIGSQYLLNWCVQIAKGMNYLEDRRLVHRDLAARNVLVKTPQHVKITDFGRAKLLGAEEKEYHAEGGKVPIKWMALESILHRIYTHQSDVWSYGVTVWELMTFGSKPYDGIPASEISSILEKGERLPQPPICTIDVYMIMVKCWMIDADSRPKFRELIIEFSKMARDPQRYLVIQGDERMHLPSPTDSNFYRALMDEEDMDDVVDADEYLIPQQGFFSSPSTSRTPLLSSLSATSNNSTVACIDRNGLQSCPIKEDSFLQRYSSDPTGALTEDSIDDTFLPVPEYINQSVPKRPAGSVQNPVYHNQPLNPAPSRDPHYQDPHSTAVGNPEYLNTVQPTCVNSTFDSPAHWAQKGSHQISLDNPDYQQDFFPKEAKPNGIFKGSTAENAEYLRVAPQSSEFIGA
# Procedure: as §1, with “Kinase assay systems for both wild-type EGFR and its mutants—T790M, L858R, and the dual L858R/T790M—were procured from Promega Corporation, USA.” left out
# as §4, §5
# WT EGFR = target: T3, WT EGFR (Homo sapiens, UniProt P00533); test: Kinase inhibition assay (ADP-Glo, Promega); assay type: biochemical; details: in vitro kinase assay; read-out: IC50 against WT EGFR
# T3 construct: purchased Promega Corporation, USA
# T3 sequence (P00533 25-1210): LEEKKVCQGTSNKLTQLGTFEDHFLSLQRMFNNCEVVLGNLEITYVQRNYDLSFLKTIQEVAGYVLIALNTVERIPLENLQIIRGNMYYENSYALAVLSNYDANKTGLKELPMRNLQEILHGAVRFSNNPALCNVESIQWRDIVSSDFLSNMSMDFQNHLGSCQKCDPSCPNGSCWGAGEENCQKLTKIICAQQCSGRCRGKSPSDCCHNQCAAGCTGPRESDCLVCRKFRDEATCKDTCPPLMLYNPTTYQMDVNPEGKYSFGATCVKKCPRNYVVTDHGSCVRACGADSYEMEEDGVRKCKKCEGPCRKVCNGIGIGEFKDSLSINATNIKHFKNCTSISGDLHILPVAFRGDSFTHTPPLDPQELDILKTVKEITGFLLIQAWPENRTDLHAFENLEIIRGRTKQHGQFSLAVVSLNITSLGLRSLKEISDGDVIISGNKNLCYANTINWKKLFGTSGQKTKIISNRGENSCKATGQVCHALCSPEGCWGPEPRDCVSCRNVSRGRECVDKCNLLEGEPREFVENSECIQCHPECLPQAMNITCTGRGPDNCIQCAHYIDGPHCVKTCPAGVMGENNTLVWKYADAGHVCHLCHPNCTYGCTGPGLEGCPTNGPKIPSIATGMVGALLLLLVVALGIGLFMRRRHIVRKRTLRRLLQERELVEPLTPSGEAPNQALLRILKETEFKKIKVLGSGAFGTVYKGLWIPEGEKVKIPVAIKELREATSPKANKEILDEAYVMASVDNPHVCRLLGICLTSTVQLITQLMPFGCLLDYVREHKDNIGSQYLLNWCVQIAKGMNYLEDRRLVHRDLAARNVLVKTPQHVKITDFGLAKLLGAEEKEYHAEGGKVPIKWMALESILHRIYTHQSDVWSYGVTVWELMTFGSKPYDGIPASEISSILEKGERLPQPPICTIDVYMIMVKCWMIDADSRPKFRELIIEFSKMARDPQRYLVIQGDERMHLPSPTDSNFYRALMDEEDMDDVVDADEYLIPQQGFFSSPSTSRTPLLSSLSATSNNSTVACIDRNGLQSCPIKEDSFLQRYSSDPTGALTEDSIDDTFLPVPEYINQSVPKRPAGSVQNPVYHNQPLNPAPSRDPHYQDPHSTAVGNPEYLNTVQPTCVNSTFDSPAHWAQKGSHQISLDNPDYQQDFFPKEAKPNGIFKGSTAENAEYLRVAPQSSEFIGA
# Procedure: as §1, with “Kinase assay systems for both wild-type EGFR and its mutants—T790M, L858R, and the dual L858R/T790M—were procured from Promega Corporation, USA.” left out
# as §4, §5
# EGFR L858R/T790M = target: T4, EGFR L858R/T790M (Homo sapiens, UniProt P00533, L858R/T790M); test: Kinase inhibition assay (ADP-Glo, Promega); assay type: biochemical; details: in vitro kinase assay; read-out: IC50 against EGFR L858R/T790M
# T4 construct: purchased Promega Corporation, USA
# T4 sequence (P00533 25-1210 T790M/L858R): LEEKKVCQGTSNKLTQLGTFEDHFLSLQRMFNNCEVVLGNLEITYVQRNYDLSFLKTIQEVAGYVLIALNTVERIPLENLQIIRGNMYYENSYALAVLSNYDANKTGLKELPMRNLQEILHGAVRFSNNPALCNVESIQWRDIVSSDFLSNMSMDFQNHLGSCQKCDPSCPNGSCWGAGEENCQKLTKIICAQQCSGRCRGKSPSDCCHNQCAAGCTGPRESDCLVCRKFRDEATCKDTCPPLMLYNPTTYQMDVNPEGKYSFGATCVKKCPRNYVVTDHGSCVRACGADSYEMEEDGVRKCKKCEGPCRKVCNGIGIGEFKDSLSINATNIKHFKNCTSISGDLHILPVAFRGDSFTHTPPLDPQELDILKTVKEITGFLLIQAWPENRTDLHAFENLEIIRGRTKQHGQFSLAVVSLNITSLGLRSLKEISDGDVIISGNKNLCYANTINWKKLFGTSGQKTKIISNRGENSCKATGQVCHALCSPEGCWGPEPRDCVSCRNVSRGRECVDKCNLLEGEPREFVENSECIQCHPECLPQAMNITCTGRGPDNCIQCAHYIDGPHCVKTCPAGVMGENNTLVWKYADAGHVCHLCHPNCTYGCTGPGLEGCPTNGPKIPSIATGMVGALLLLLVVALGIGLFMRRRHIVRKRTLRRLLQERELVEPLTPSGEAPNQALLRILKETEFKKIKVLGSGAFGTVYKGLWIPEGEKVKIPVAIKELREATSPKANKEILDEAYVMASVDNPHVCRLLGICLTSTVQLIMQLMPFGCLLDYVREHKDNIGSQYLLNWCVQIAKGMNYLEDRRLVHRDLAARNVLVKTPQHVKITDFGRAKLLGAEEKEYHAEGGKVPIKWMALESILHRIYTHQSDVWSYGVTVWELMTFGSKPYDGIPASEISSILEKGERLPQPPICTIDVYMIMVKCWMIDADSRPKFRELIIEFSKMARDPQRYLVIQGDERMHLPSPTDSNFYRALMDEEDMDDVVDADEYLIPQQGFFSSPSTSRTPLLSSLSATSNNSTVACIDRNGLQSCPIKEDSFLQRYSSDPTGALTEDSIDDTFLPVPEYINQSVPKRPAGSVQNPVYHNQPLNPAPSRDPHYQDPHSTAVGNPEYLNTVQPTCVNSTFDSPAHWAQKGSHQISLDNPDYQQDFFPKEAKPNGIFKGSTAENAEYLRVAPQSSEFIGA
# Procedure: as §1, with “Kinase assay systems for both wild-type EGFR and its mutants—T790M, L858R, and the dual L858R/T790M—were procured from Promega Corporation, USA.” left out
# as §4, §5
# A431 cells = test: MTT assay, A431; assay type: cell-based, human; details: A431 (high EGFR-expressing), 10 μM
# Procedure: as §2, §3
smiles,measurement,setting,value
COC(=O)C/C(C)=C/C(=O)O[C@@H]1C[C@@H](C)[C@H]2[C@@H](C=C[C@H](CC(C)C)[C@]2(C)C(=O)/C=C\O)[C@@H]1O [Tandyukisin],Cleaved Caspase-3 WB Gray Value,Cleaved Caspase-3; 5 µM,17172.004
same,Cleaved Caspase-3 WB Normalized,Cleaved Caspase-3; 5 µM,0.3916
same,Cleaved Caspase-3 WB Gray Value,Cleaved Caspase-3; 10 µM,22734.418
same,Cleaved Caspase-3 WB Normalized,Cleaved Caspase-3; 10 µM,0.5222
same,Cleaved Caspase-3 WB Gray Value,Cleaved Caspase-3; 20 µM,173083.238
same,Cleaved Caspase-3 WB Normalized,Cleaved Caspase-3; 20 µM,5.061
same,expression level of cleaved caspase-3 protein,"Cleaved Caspase-3; MCF-7, upon treatment",increased
same,Kd,[1],5.57 µM
same,kon,"[1]; Figure 4A-B, read-out: ka, EGFR kinase domain",3050 M⁻¹ s⁻¹
same,cell lethality percentage,HL-60 cells,11.1% ± 1.2%
same,IC50,EGFR T790M,0.0326 ± 0.0006 µM
same,IC50,EGFR L858R,0.0031 ± 0.0001 µM
same,IC50,WT EGFR,0.0106 µM and 0.01 µM and ~0.01 µM
same,IC50,EGFR L858R/T790M,0.237 ± 0.028 µM
same,cell lethality percentage,A431 cells,67.3% ± 2.7%

# Reference: PMC11094307, “Marine-derived EGFR inhibitors: novel compounds targeting breast cancer growth and drug resistance” (Frontiers in Pharmacology, 2024)
